US20030130180A1, “Utilization of an aminopeptidase inhibitor” (priority 2000, published 2003)

Test system: Karpas cells
Test: Detection of surface protein combinations of the protein network on untreated (V1) and actinonin-treated (V2) Karpas cells
Format: cell-based
Conditions: actinonin-treated Karpas cells (V2)
Excerpt: Principally, detecting of the surface protein combinations may comprise procedural steps of an automated method for determining molecular classes, molecular groups or molecular parts in a solid or liquid object according to DE 197 09 348 C. In these steps, surface proteins may be examined and measured in one and the same object, i.e. in a sample of immune cells and/or tumor cells for example, by sequentially applying reagent solutions Yn (n=1,2,3, . . . N) by means of an automated apparatus, said procedural steps being: I. taking a first reagent solution Y1 from a vessel containing the reagent solution, II. applying said reagent solution Y1 to the object which is on an object slide, III. allowing the reagent solution to react for an automatically set period of time, IV. recording at least one individual labeling pattern of the object previously labeled with said first reagent solution Y1, V. repeating steps I-IV by applying said first reagent solution Y1 or a second reagent solution Y2 or a mixture of said first and second reagent solutions, and VI. repeating steps I to V with further reagent solutions Yn (n=2,3, . . . N) or a mixture thereof and whereby the labeling distribution patterns obtained in each cycle of the method are turned into a complex molecular combination pattern of the object to be examined by computer-aided image overlay. From this combination pattern, information may be gained on the presence of the above mentioned proteins, thus also allowing detection of the surface protein combinations, if the reagent solutions used contain labeled substances directed against the proteins in question. In numerous examinations, it was possible to identify the 30 cell surface proteins already listed above which belong to a specific protein network controlling the early polarization stages of tumor cells and immune cells. In a further examination, surface protein combinations of this protein network of Karpas cells were detected, both in untreated form and after treatment with the aminopeptidase inhibitor actinonin. For this purpose, two groups V1 and V2 of Karpas cells were formed, with the cells of group Vl remaining untreated, while the cells of group V2 were treated with actinonin. Table 2 lists those surface protein combinations which are present both in the actinonin-treated cells and in the untreated cells. However, this table and the further tables 3 and 4 only give examples of 18 of the 30 proteins, with the detected proteins being designated 1 and the non-detected proteins being designated 0. The proteins are continuously numbered 1 to 18, with the nomenclature being notable from table 1. [table] The cell numbers stated in tables 2 to 4 refer to each 1,000 cells examined in groups V1 and V2. Table 3 lists the surface protein combinations which only occur in the untreated Karpas cells and are never found in the actinonin-treated Karpas cells. The number of protein combinations listed in this table 3 amounts to 131. Finally, table 4 exclusively lists those surface protein combinations which occur exclusively in the actinonin-treated Karpas cells. It may be gathered from tables 2 to 4 that, if one examines merely 18 proteins of the 30 proteins, a total of 394 different surface protein combinations will occur, with a total of 334 different combinations occurring in the untreated cells and a total of 263 different combinations being detected in the treated cells.

Measured: V2 No. of cells In 1/1000

CCCCC[C@H](CC(=O)NO)C(=O)N[C@H](C(=O)N1CCC[C@H]1CO)C(C)C [actinonin]
0.0 1/1000: surface protein combination No. 19, binary code proteins 1-18: 011000011101011100, untreated V1: 0.4 | surface protein combination No. 20, binary code proteins 1-18: 011000011000000000, untreated V1: 0.4 | surface protein combination No. 21, binary code proteins 1-18: 010000001101001100, untreated V1: 0.4 | surface protein combination No. 22, binary code proteins 1-18: 010000001100011100, untreated V1: 0.4 | surface protein combination No. 23, binary code proteins 1-18: 001100011011001000, untreated V1: 0.4 | surface protein combination No. 24, binary code proteins 1-18: 001100011001001000, untreated V1: 0.4 | surface protein combination No. 25, binary code proteins 1-18: 001000010101101000, untreated V1: 0.4 | surface protein combination No. 26, binary code proteins 1-18: 001000010010001000, untreated V1: 0.4 | surface protein combination No. 27, binary code proteins 1-18: 000000000010001000, untreated V1: 0.4 | surface protein combination No. 28, binary code proteins 1-18: 111000011111011100, untreated V1: 0.2 | surface protein combination No. 29, binary code proteins 1-18: 110000011100011100, untreated V1: 0.2 | surface protein combination No. 30, binary code proteins 1-18: 101100000000001100, untreated V1: 0.2 | surface protein combination No. 31, binary code proteins 1-18: 101000111111011000, untreated V1: 0.2 | surface protein combination No. 32, binary code proteins 1-18: 011100011111011100, untreated V1: 0.2 | surface protein combination No. 33, binary code proteins 1-18: 011100011100001000, untreated V1: 0.2 | surface protein combination No. 34, binary code proteins 1-18: 011100001100001100, untreated V1: 0.2 | surface protein combination No. 35, binary code proteins 1-18: 001100000011001000, untreated V1: 0.2 | surface protein combination No. 36, binary code proteins 1-18: 001000011100000000, untreated V1: 0.2 | surface protein combination No. 37, binary code proteins 1-18: 001000010111011100, untreated V1: 0.2 | surface protein combination No. 38, binary code proteins 1-18: 001000010110001000, untreated V1: 0.2 | surface protein combination No. 39, binary code proteins 1-18: 001000001011000000, untreated V1: 0.2 | surface protein combination No. 40, binary code proteins 1-18: 000100010100001000, untreated V1: 0.2 | surface protein combination No. 41, binary code proteins 1-18: 000000011011001000, untreated V1: 0.2 | surface protein combination No. 42, binary code proteins 1-18: 000000010110001000, untreated V1: 0.2 | surface protein combination No. 43, binary code proteins 1-18: 000000010010001000, untreated V1: 0.2 | surface protein combination No. 44, binary code proteins 1-18: 000000000000001100, untreated V1: 0.2 | surface protein combination No. 45, binary code proteins 1-18: 111100101100011000, untreated V1: 0.1 | surface protein combination No. 46, binary code proteins 1-18: 111100011101001100, untreated V1: 0.1 | surface protein combination No. 47, binary code proteins 1-18: 111100011100111100, untreated V1: 0.1 | surface protein combination No. 48, binary code proteins 1-18: 111100011100011000, untreated V1: 0.1 | surface protein combination No. 49, binary code proteins 1-18: 111000011111011000, untreated V1: 0.1 | surface protein combination No. 50, binary code proteins 1-18: 111000011101011000, untreated V1: 0.1 | surface protein combination No. 51, binary code proteins 1-18: 111000001100011100, untreated V1: 0.1 | surface protein combination No. 52, binary code proteins 1-18: 110000001101011100, untreated V1: 0.1 | surface protein combination No. 53, binary code proteins 1-18: 110000001100000100, untreated V1: 0.1 | surface protein combination No. 54, binary code proteins 1-18: 101100011011011000, untreated V1: 0.1 | surface protein combination No. 55, binary code proteins 1-18: 101100010111001100, untreated V1: 0.1 | surface protein combination No. 56, binary code proteins 1-18: 101100010011001000, untreated V1: 0.1 | surface protein combination No. 57, binary code proteins 1-18: 101100000000001000, untreated V1: 0.1 | surface protein combination No. 58, binary code proteins 1-18: 101000110101011000, untreated V1: 0.1 | surface protein combination No. 59, binary code proteins 1-18: 101000011111011100, untreated V1: 0.1 | surface protein combination No. 60, binary code proteins 1-18: 101000011101011000, untreated V1: 0.1 | surface protein combination No. 61, binary code proteins 1-18: 101000010111111000, untreated V1: 0.1 | surface protein combination No. 62, binary code proteins 1-18: 101000010101011100, untreated V1: 0.1 | surface protein combination No. 63, binary code proteins 1-18: 100100110100011100, untreated V1: 0.1 | surface protein combination No. 93, binary code 001100010111111000 | surface protein combination No. 94, binary code 001100010111101100 | surface protein combination No. 95, binary code 001100010100011000 | surface protein combination No. 96, binary code 001100010011001100 | surface protein combination No. 97, binary code 001100010001001100 | surface protein combination No. 98, binary code 001100001101001000 | surface protein combination No. 99, binary code 001100000101000000 | surface protein combination No. 100, binary code 001000111111011000 | surface protein combination No. 101, binary code 001000111101011000 | surface protein combination No. 102, binary code 001000111011011000 | surface protein combination No. 103, binary code 001000011111011100 | surface protein combination No. 104, binary code 001000011101101000 | surface protein combination No. 105, binary code 001000011001011000 | surface protein combination No. 106, binary code 001000011001000100 | surface protein combination No. 107, binary code 001000010111101000 | surface protein combination No. 108, binary code 001000010101000100 | surface protein combination No. 109, binary code 001000010100011000 | surface protein combination No. 110, binary code 001000010011010000 | surface protein combination No. 111, binary code 001000010001011100 | surface protein combination No. 112, binary code 001000001111001000 | surface protein combination No. 113, binary code 001000001011001000 | surface protein combination No. 114, binary code 001000001001001000 | surface protein combination No. 115, binary code 001000001000000000 | surface protein combination No. 116, binary code 001000000110001000 | surface protein combination No. 117, binary code 000100011001000000
